# Results: patent US20150218164A1, “SUBSTITUTED NAPHTHYRIDINEDIONE DERIVATIVES AS HIV INTEGRASE INHIBITORS” (MERCK SHARP & DOHME CORP., priority 2012, published 2015)
# Like-named read-outs stand apart in the source and are kept apart here.
# Test system: HIV-1 (NL4-3 strain)
# Assay: Assay for inhibition of HIV replication (MT4-gag-GFP reporter cells, wild type cell assay)
# Type: cell-based
# Conditions: MT4-GFP cells infected with HIV-1 NL4-3, infected cells at 48 h / 24 h, read-out: Wild Type Cell Assay IP (% NHS)
# Procedure: This assay is a kinetic assay that employs a reporter cell line (MT4-gag-GFP) to quantify the number of new cells infected in each round of replication. Briefly, MT4-GFP cells (250,000 cells/ml) were bulk-infected with HIV-1 (NL4-3 strain) at low multiplicity of infection (MOI) in RPMI+10% FBS for 24 hours. Cells were then washed once in RPMI+10% FBS and resuspended RPMI+10% or 50% normal human serum (NHS). Test compounds were serial-diluted in DMSO on ECHO. The infected MT4-GFP cells were added to a 384-well poly-D-lysine coated black plate with clear bottom in which the diluted test compounds were placed. The cells were seeded at 8,000 cells per well and the final DMSO concentration was 0.4%. The infected cells (Green GFP cells) were quantified at both 24 and 48 hours post incubation using Acumen eX3. Viral reproductive ratio (R0) was determined using the number of infected cells at 48 hours divided by the number of infected cells at 24 hours. Percent viral growth inhibition was calculated by [1−(R−Rtripledrug)/(RDMSO−Rtripledrug)]*100. Compound potency IP or IC50 was determined by a 4-parameter dose response curve analysis.
# [1] = Human immunodeficiency virus 1, NL43, 50% NHS
# [2] = Human immunodeficiency virus 1, NL43, 10% NHS
Structure (SMILES),IC50 [1] [nM],further results
"CC(O)CCN1C(=O)c2c3c(c(O)c(=O)n2[C@@]12CC[C@H]1C[C@H]12)C(=O)N(Cc1ccc(F)c(Cl)c1)CC3 (single isomer, unassigned) [Compound 3]",32,–
"CN1C(=O)c2c3c(c(O)c(=O)n2[C@]12CC[C@@H]1C[C@@]12COP(=O)(O)O)C(=O)N(Cc1ccc(F)c(Cl)c1)CC3 (single isomer, unassigned) [Compound 19]",2090,–
C[C@H](N)C(=O)O[C@@H](C)CN1C(=O)c2c3c(c(O)c(=O)n2[C@@]12CC[C@H]1C[C@H]12)C(=O)N(Cc1ccc(F)c(Cl)c1)CC3 [Compound 9],42,–
CN1C(=O)c2c3c(c(O)c(=O)n2[C@@]12CC[C@@H]1C[C@@]12CO)C(=O)N(Cc1ccc(F)c(Cl)c1)CC3 [Compound 14],14,–
CS(=O)(=O)CC12CC1CCC21NC(=O)c2c3c(c(O)c(=O)n21)C(=O)N(Cc1ccc(F)c(Cl)c1)CC3 (stereo not shown) [Compound 18],37,–
C[C@@H](CN1C(=O)c2c3c(c(O)c(=O)n2[C@@]12CC[C@H]1C[C@H]12)C(=O)N(Cc1ccc(F)c(Cl)c1)CC3)OC(=O)[C@@H](N)CCCCN [Compound 8],46,–
CSCC[C@H](N)C(=O)O[C@@H](C)CN1C(=O)c2c3c(c(O)c(=O)n2[C@@]12CC[C@H]1C[C@H]12)C(=O)N(Cc1ccc(F)c(Cl)c1)CC3 [Compound 11],71,–
CSCC12CC1CCC21NC(=O)c2c3c(c(O)c(=O)n21)C(=O)N(Cc1ccc(F)c(Cl)c1)CC3 (stereo not shown) [Compound 17],–,IC50 (50% NHS): 28 nM
"O=C1c2c(c3n(c(=O)c2O)[C@@]2(CC[C@H]4C[C@H]42)N(CC(O)CF)C3=O)CCN1Cc1ccc(F)c(Cl)c1 (single isomer, unassigned) [Compound 4]",–,IC50 [2]: 7.5 nM
"C[C@H](O)CN1C(=O)c2c3c(c(O)c(=O)n2[C@@]12CC[C@H]1C[C@H]12)C(=O)N(Cc1ccc(F)c(Cl)c1)CC3 (single isomer, unassigned) [Compound 6]",53,–
CC(C)C[C@H](N)C(=O)O[C@@H](C)CN1C(=O)c2c3c(c(O)c(=O)n2[C@@]12CC[C@H]1C[C@H]12)C(=O)N(Cc1ccc(F)c(Cl)c1)CC3 [Compound 10],49,–
C[C@@H](CN1C(=O)c2c3c(c(O)c(=O)n2[C@@]12CC[C@H]1C[C@H]12)C(=O)N(Cc1ccc(F)c(Cl)c1)CC3)OC(=O)CN(C)C [Compound 13],69,–
CSCC12CC1CCC21NC(=O)c2c3c(c(O)c(=O)n21)C(=O)N(Cc1ccc(F)c(Cl)c1)CC3 (stereo not shown) [Compound 16],20,–
CN1C(=O)c2c3c(c(O)c(=O)n2[C@]12CC[C@@H]1C[C@@]12CO)C(=O)N(Cc1ccc(F)c(Cl)c1)CC3 [Compound 15],24,–
"O=C1c2c(c3n(c(=O)c2O)[C@@]2(CC[C@H]4C[C@H]42)N(CC(F)CO)C3=O)CCN1Cc1ccc(F)c(Cl)c1 (single isomer, unassigned) [Compound 5]",–,IC50 [2]: 27 nM
"C[C@@H](O)CN1C(=O)c2c3c(c(O)c(=O)n2[C@@]12CC[C@H]1C[C@H]12)C(=O)N(Cc1ccc(F)c(Cl)c1)CC3 (single isomer, unassigned) [Compound 2]",33,–
C[C@@H](CN1C(=O)c2c3c(c(O)c(=O)n2[C@@]12CC[C@H]1C[C@H]12)C(=O)N(Cc1ccc(F)c(Cl)c1)CC3)OP(=O)(O)O [Compound 1],1200,–
CC(C)[C@H](N)C(=O)O[C@@H](C)CN1C(=O)c2c3c(c(O)c(=O)n2[C@@]12CC[C@H]1C[C@H]12)C(=O)N(Cc1ccc(F)c(Cl)c1)CC3 [Compound 12],54,–
C[C@H](CN1C(=O)c2c3c(c(O)c(=O)n2[C@@]12CC[C@H]1C[C@H]12)C(=O)N(Cc1ccc(F)c(Cl)c1)CC3)OP(=O)(O)O [Compound 7],1090,–
